Experimental data as given in patent US10195313B2, “Method for forming hydrogel arrays using surfaces with differential wettability” (Wisconsin Alumni Research Foundation, priority 2014, dated 2019).
Non-standard residues stand in square brackets, D forms with d. No end group written: not given here.

Tested on: endothelial cells (HUVECs, iPSC-ECs, hESC-ECs)
Experiment: endothelial cell tubule network formation (tubulogenesis) on patterned hydrogel array spots
Type: cell-based, human
Details: 0.067 mM to 0.267 of peptide incorporated into hydrogel arrays
Experimental: In this Example, a patterned hydrogel array was used to investigate endothelial cell tubule network formation (termed “tubulogenesis”) in vitro.
Specifically, patterned hydrogel arrays were composed of 8-arm, 20 kDa polyethylene glycol) functionalized with norbenene. As illustrated in the schematic shown in FIG. 13A, the patterned hydrogel arrays included hydrogel spots contained from 30 mg/mL to 60 mg/mL PEG, from 30-70% crosslinking with an MMP-degradable crosslinking peptide (KCGGPQGIWGQGCK, SEQ ID NO:35 or KCGGPQGIAGQGCK, SEQ ID NO:36) and 0.25 mM to 2 mM of a cell adhesive peptide (CRGDS, SEQ ID NO:2). Patterned hydrogel array spots were seeded with human umbilical vein endothelial cells (HUVECs), human induced pluripotent stem cell-derived endothelial cells (iPSC-ECs), and human embryonic stem cell-derived endothelial cells (hESC-ECs) in culture media containing standard growth medium for each cell type (Medium 199 and EGM-2 BULLETKIT™ (Lonza, Basel, Switzerland) for HUVECs, VASCULIFE® and VEGF LifeFactors for iPSC-ECs and hESC-ECs (Lifeline Cell Technology, Frederick, Md.)).
The hydrogel spots that contained between 36 mg/mL to 60 mg/mL PEG, 30-70% crosslinking with an MMP-degradable crosslinking peptide and 0.25 mM to 2 mM of the cell adhesive peptide supported of EC tubule formation (FIG. 13C). […]

## CKDAPYEWNFDILdYdAdFdE (CKDAPYEWNFDIL[dY][dA][dF][dE]; not fully specified (residue 13))
  persistence of tubule networks: enhanced
